Results published in PMC8868346, “Novel Series of Dual NRF2 Inducers and Selective MAO-B Inhibitors for the Treatment of Parkinson’s Disease” (Antioxidants, 2022).

Columns and labels:
[1] = system: HMOX1 and GCLC in MEF cells; experiment: Western blot of NRF2-dependent proteins in WT and NRF2 KO MEF cells; assay type: cell-based, mouse; conditions: 10 µM, 8 or 16 h
Description: Cell samples were lysed in ice-cold AKT lysis buffer (137 mM of NaCl, 20 mM of NaF, 10% glycerol, 20 mM of Tris–HCl, 1% Nonidet P-40, 1 μg/mL of leupeptin, 1 mM of phenylmethylsulfonylfluoride, 1 mM of sodium pyrophosphate, and 1 mM of Na3VO4, pH 7.5). Protein quantification was performed using the Pierce BCA Protein Assay Kit (ThermoFisher, Madrid, Spain) following manufacturer’s instructions. Then, 30 μg of protein were resolved by sodium dodecyl sulfate-polyacrylamide gel electrophoresis (SDS-PAGE) and transferred to Immobilon-P polyvinylidene difluoride (PVDF) membranes (Millipore Corp.). Membranes were activated with methanol and blocked with 4% bovine serum albumin (BSA) in Tris-buffered saline-Tween (TTBS: 10 mM of Tris, 150 mM of NaCl; 0.2% Tween-20, pH 7.4) for 2 h. After that, membranes were incubated overnight at 4 °C with the corresponding primary antibodies: anti–HMOX1 (1:1000, ab68477, Abcam, Cambridge, UK), anti-glutamate-cysteine ligase catalytic subunit (GCLC, 1:1000, ab41463, Abcam), anti-β-actin (1:50,000, A3854, Sigma–Aldrich, Madrid, Spain). […] Band intensities from specific proteins were analyzed with Fiji software.

rat striatal slices [2] = experiment: Rat striatal slices exposed to 6-OHDA: cell death and ROS production; assay type: cell-based; conditions: compound 10 µM, 6-OHDA 100 µM, 4 h
Description: (§1) Three- to four-month-old Sprague–Dawley rats were decapitated, the brain was removed, and the two brain hemispheres were separated. Each hemisphere was then cut into 300-µm coronal slices using a McIlwain Tissue Chopper (Cavey Laboratory Engineering, Surrey, UK) and separated in a previously oxygenated (95% O2 and 5% CO2) ice-cold Krebs’s dissection buffer (120 mM of NaCl; 2 mM of KCl; 26 mM of NaHCO3; 1.18 mM of KH2PO4; 10 mM of MgSO4; 0.5 mM of CaCl2; 11 mM of glucose; and 200 mM sucrose at pH 7.4) using a Leica SE6 microscope (Leica, Madrid, Spain). Striatum-containing slices were selected and immediately incubated for stabilization in dissection buffer without sucrose, bubbled with 95% O2 and 5% CO2 for 45 min at 34 °C, allowing slices to recover from slicing injury. […] Finally, cell death and the ROS production were measured.
(§2) ROS quantification was performed using the fluorescent probe 2,7′-dichlorodihydrofluorescein diacetate (H2DCFDA, λEx/Em = 495/529 nm; Thermo Fisher, Madrid, Spain). Cell death quantification was performed using the fluorescent probe propidium iodide (PI, λEx/Em = 535/617 nm; Thermo Fisher, Madrid, Spain). […] Fluorescence from striatum slices was then recorded for H2DCFDA (λEx/Em = 495/529 nm), PI (λEx/Em = 535/617 nm), and Hoechst (λEx/Em = 350/461 nm), in an inverted Nikon Eclipse T2000-U microscope (Nikon, Tokyo, Japan). […]

rat striatal slices [3] = experiment: Rat striatal slices exposed to rotenone: ROS production; assay type: cell-based; conditions: compound 10 µM, rotenone 10 µM, 4 h
Description: as §1, §2

C#CCN(CC#C)CCc1c[nH]c2ccc(OC(=O)C=Cc3ccccc3)cc12 [Compound 14, 3-(2-(Di(prop-2-yn-1-yl)amino)ethyl)-1H-indol-5-yl Cinnamate]
HMOX1 and GCLC protein levels in NRF2 KO MEF cells [1]: not able to increase
HMOX1 and GCLC protein levels in WT MEF cells [1]: increased
ROS production (H2DCFDA), 6-OHDA model (rat striatal slices [2]): significantly decreased ROS production
cell death (propidium iodide), 6-OHDA model (rat striatal slices [2]): significant reduction in cell death
ROS levels (H2DCFDA), rotenone model (rat striatal slices [3]): reduced
